The source of these data is patent US20140315889A1, “HYDROXAMATE DERIVATIVES FOR HDAC INHIBITOR, AND THE PHARMACEUTICAL COMPOSITION COMPRISING THEREOF” (CHONG KUN DANG PHARMACEUTICAL CORP., priority 2011, published 2014).

As a reminder, the pIC50 is the negative decadic logarithm of the IC50, by convention in mol/L.

One assay has as its target T1, Human recombinant HDAC1 (Homo sapiens, UniProt Q13547).
T1 construct: purchased Enzo Life Science Co. (named for the kit; assigned to the enzyme from the BML- catalogue prefix) BML-SE456
Put plainly: HDAC enzyme activity test, HDAC1. Type of assay: biochemical. To be noted: Table 12; read-out: Inhibition ability (IC50) HDAC1. How it is done: (§1) Then, 0.3 μg of enzyme and 10 μM of substrate per well were added, reacted at 30° C. for 60 minutes. Thereto, Fluor de Lys® Developer II (BML-KI176) was added and reacted for 30 minutes. […] From the data, the respective IC50 were calculated by GraphPad Prism 4.0 program.

For another assay, the target named is T2, human recombinant HDAC6 (Homo sapiens, UniProt Q9UBN7).
T2 construct: purchased Calibiochem Co. (so in the source) 382180
T2 sequence (Q9UBN7 1-1215): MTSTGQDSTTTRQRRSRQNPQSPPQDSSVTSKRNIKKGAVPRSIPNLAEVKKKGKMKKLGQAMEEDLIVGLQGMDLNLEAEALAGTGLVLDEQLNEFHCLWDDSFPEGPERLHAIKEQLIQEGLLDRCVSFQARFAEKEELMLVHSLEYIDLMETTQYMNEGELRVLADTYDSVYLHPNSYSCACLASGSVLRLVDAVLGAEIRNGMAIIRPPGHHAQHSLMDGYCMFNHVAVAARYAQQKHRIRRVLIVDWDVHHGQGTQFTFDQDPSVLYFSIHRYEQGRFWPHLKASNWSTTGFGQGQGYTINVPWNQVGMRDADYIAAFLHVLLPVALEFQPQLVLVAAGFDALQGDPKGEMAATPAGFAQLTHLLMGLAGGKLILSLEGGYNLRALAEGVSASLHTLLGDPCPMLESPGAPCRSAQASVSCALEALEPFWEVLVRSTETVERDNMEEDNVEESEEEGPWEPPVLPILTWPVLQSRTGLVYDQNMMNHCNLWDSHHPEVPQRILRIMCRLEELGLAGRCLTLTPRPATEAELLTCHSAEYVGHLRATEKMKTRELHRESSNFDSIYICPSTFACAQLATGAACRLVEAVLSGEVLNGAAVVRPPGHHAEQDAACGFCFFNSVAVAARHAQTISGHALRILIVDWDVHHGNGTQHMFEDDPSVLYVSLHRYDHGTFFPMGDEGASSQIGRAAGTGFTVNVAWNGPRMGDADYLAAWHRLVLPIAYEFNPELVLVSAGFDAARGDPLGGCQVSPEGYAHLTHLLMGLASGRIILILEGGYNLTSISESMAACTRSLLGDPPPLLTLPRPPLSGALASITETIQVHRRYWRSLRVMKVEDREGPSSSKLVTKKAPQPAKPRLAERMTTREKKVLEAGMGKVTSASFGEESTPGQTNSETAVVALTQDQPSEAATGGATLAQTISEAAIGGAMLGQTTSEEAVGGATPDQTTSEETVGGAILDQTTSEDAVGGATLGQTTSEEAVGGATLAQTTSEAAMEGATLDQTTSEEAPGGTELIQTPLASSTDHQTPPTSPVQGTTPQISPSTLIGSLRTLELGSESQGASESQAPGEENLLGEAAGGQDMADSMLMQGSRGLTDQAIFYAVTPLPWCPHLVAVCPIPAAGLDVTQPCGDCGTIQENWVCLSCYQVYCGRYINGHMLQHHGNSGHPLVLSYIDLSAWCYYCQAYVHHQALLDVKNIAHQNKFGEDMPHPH
As to the kind of experiment: HDAC enzyme activity test, HDAC6. The class given is biochemical. To be noted: Table 12; for Selectivity for HDAC6, HD1/HD6: ratio HDAC1 IC50 / HDAC6 IC50; for pIC50: read-out: Inhibition ability (IC50) HDAC6. The protocol: as §1

The structures appear in SMILES notation. pIC50: −log10 of the molar value.

T1 sequence (Q13547 whole entry): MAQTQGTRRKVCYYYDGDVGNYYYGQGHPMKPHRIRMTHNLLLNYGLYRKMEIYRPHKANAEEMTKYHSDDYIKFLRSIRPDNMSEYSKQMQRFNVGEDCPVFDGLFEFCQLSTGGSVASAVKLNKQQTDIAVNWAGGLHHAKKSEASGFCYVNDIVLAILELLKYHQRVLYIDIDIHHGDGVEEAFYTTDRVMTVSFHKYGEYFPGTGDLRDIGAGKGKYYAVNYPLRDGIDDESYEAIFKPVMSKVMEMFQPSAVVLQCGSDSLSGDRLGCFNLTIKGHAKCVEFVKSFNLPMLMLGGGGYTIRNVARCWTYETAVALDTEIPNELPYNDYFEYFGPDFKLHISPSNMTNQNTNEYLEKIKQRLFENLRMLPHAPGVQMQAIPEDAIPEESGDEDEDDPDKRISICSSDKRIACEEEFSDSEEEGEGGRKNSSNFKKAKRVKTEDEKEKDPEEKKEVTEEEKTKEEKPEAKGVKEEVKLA

For `Cc1nccn1CC1C(=O)c2c(n(Cc3ccc(C(=O)NO)cc3)c3ccccc23)CC1(C)C` (stereo not drawn) [Compound 126, 4-((2,2-dimethyl-3-((2-methyl-1H-imidazol-1-yl)methyl)-4-oxo-1,2,3,4-tetrahydrocarbazol-9-yl)methyl)-N-hydroxybenzamide], on Human recombinant HDAC1, the pIC50 is 5.24. Besides, at human recombinant HDAC6, the “Selectivity for HDAC6, HD1/HD6” value worked out at 163.3 and the pIC50 is 7.45.

In the case of `O=C(CCCCCCn1c2c(c3cc(F)ccc31)C(=O)CCC2)NO` [Compound 325, 7-(3-fluoro-5-oxo-5,6,7,8-tetrahydrocarbazol-9-yl)-N-hydroxyheptanamide], the values for the pIC50 on Human recombinant HDAC1 and on human recombinant HDAC6 were 7.03 and 8.52, respectively. At human recombinant HDAC6, the “Selectivity for HDAC6, HD1/HD6” value is 31.3.

Take `CC1(C)CC(=O)c2c(n(CCCCCC(=O)NO)c3ccc(Br)cc23)C1` [Compound 40, 6-(6-bromo-2,2-dimethyl-4-oxo-1,2,3,4-tetrahydrocarbazol-9-yl)-N-hydroxyhexanamide]: the pIC50 on Human recombinant HDAC1 is 5.05; at human recombinant HDAC6, 6.93. Moreover, the “Selectivity for HDAC6, HD1/HD6” value on human recombinant HDAC6 was determined as 75.5.

`CC1(C)CC(=O)c2c(n(CCCCCC(=O)NO)c3c(Cl)cc(Cl)cc23)C1` [Compound 47, 6-(1,3-dichloro-7,7-dimethyl-5-oxo-5,6,7,8-tetrahydrocarbazol-9-yl)-N-hydroxyhexanamide]: on Human recombinant HDAC1, the pIC50 is 5.54. At human recombinant HDAC6, the “Selectivity for HDAC6, HD1/HD6” value is recorded as 6.9 and the pIC50 is 6.38.

As for `CN(C)CC1C(=O)c2c(n(Cc3ccc(C(=O)NO)cc3)c3ccccc23)CC1(C)C` (stereo not drawn) [Compound 129, 4-((3-((dimethylamino)methyl)-2,2-dimethyl-4-oxo-1,2,3,4-tetrahydrocarbazol-9-yl)methyl)-N-hydroxybenzamide], the pIC50 on Human recombinant HDAC1 was 5.37. In addition, on human recombinant HDAC6, the “Selectivity for HDAC6, HD1/HD6” value was determined as 642.7 and the pIC50 is 8.18.

With `Cc1c2c(n(Cc3ccc(C(=O)NO)cc3)c1C)CCCC2=O` [Compound 220, 4-((2,3-dimethyl-4-oxo-4,5,6,7-tetrahydroindol-1-yl)methyl)-N-hydroxybenzamide], the pIC50 on Human recombinant HDAC1 is 5.55. Moreover, on human recombinant HDAC6, the “Selectivity for HDAC6, HD1/HD6” value worked out at 643.1 and the pIC50 is 8.36.

Regarding `Cc1cc2c(n1CCCCCC(=O)NO)CC(C)(C)CC2=O` [Compound 345, N-hydroxy-6-(2,6,6-trimethyl-4-oxo-4,5,6,7-tetrahydroindol-1-yl)hexanamide], the pIC50 at Human recombinant HDAC1 is 6.40. For the same compound, at human recombinant HDAC6, the “Selectivity for HDAC6, HD1/HD6” value came out at 14.3 and the pIC50 was 7.55.

For the compound `CN1CCN(CCN2CCc3c(c4cc(F)ccc4n3Cc3ccc(C(=O)NO)cc3)C2=O)CC1` [Compound 287, 4-((8-fluoro-2-(2-(4-methylpiperazin-1-yl)ethyl)-1-oxo-1,2,3,4-tetrahydropyrido[4,3-b]indol-5-yl)methyl)-N-hydroxybenzamide], the pIC50 at Human recombinant HDAC1 is 5.09. For the same compound, at human recombinant HDAC6, the “Selectivity for HDAC6, HD1/HD6” value stood at 715.1 and the pIC50 was 7.94.

Turning to `CC1(C)CC(=O)c2c(n(CCCCCC(=O)NO)c3c(Br)cccc23)C1` [Compound 46, 6-(1-bromo-7,7-dimethyl-5-oxo-5,6,7,8-tetrahydrocarbazol-9-yl)-N-hydroxyhexanamide], at Human recombinant HDAC1, the pIC50 was 5.68. For the same compound, on human recombinant HDAC6, the “Selectivity for HDAC6, HD1/HD6” value is recorded as 8.2 and the pIC50 is 6.60.

For `CC1(C)CC(=O)c2c(n(CCCCCC(=O)NO)c3ccccc23)C1` [Compound 18, 6-(2,2-dimethyl-4-oxo-1,2,3,4-tetrahydrocarbazol-9-yl)-N-hydroxyhexanamide], the pIC50 at Human recombinant HDAC1 is 5.88. Further, at human recombinant HDAC6, the “Selectivity for HDAC6, HD1/HD6” value is listed as 18.5 and the negative logarithm of the IC50 (pIC50) is 7.15.

Take `O=C(NO)c1ccc(Cn2c3c(c4ccccc42)C(=O)C(CN2CCN(C(=O)C4CC4)CC2)CC3)cc1` (stereo not drawn) [Compound 156, 4-((3-((4-(cyclopropancarbonyl)piperazin-1-yl)methyl)-4-oxo-1,2,3,4-tetrahydrocarbazol-9-yl)methyl)-N-hydroxybenzamide]: on Human recombinant HDAC1, the pIC50 is 5.19. For the same compound, on human recombinant HDAC6, the “Selectivity for HDAC6, HD1/HD6” value was determined as 424.8 and the pIC50 is 7.82.

In the case of `O=C(NO)c1ccc(Cn2c3c(c4cc(F)ccc42)C(=O)CCC3)cc1` [Compound 157, 4-((3-fluoro-5-oxo-5,6,7,8-tetrahydrocarbazol-9-yl)methyl)-N-hydroxybenzamide], the pIC50 on Human recombinant HDAC1 was 5.44. For the same compound, at human recombinant HDAC6, the “Selectivity for HDAC6, HD1/HD6” value is 326.2 and the pIC50 was 7.96.

Take `CC1(C)CCc2c(c3ccccc3n2Cc2ccc(C(=O)NO)cc2)C1=O` [Compound 131, 4-((3,3-dimethyl-4-oxo-1,2,3,4-tetrahydrocarbazol-9-yl)methyl)-N-hydroxybenzamide]: the pIC50 was 5.57 on Human recombinant HDAC1 and 8.04 at human recombinant HDAC6. In addition, on human recombinant HDAC6, the “Selectivity for HDAC6, HD1/HD6” value is reported as 296.6.

For the compound `CN1CCCN(CCN2CCc3c(c4cc(F)ccc4n3Cc3ccc(C(=O)NO)cc3)C2=O)CC1` [Compound 291, 4-((8-fluoro-2-(2-(4-methyl-1,4-diazepan-1-yl)ethyl)-1-oxo-1,2,3,4-tetrahydropyrido[4,3-b]indol-5-yl)methyl)-N-hydroxybenzamide], the values for the pIC50 at Human recombinant HDAC1 and at human recombinant HDAC6 were 5.10 and 7.73, respectively. In addition, the “Selectivity for HDAC6, HD1/HD6” value at human recombinant HDAC6 came out at 426.3.

For `CN1CCN(CC2CCc3c(c4ccccc4n3Cc3ccc(C(=O)NO)cc3)C2=O)CC1` (stereo not drawn) [Compound 111, N-hydroxy-4-((3-((4-methylpiperazin-1-yl)methyl)-4-oxo-1,2,3,4-tetrahydrocarbazol-9-yl)methyl)benzamide], at Human recombinant HDAC1, the pIC50 is 5.38. Besides, at human recombinant HDAC6, the “Selectivity for HDAC6, HD1/HD6” value came to 338.2 and the pIC50 is 7.91.

Turning to `O=C(NO)c1ccc(Cn2c3c(c4ccccc42)C(=O)C(CN2CCCC2)CC3)cc1` (stereo not drawn) [Compound 88, N-hydroxy-4-((4-oxo-3-(pyrrolidin-1-ylmethyl)-1,2,3,4-tetrahydrocarbazol-9-yl)methyl)benzamide], the pIC50 on Human recombinant HDAC1 is 5.40. On human recombinant HDAC6, the “Selectivity for HDAC6, HD1/HD6” value was determined as 358.7 and the pIC50 is 7.96.

As for `O=C(NO)c1ccc(Cn2c3c(c4ccccc42)C(=O)C(CN2CCN(c4ccc(F)cc4)CC2)CC3)cc1` (stereo not drawn) [Compound 127, 4-((3-((4-(4-fluorophenyl)piperazin-1-yl)methyl)-4-oxo-1,2,3,4-tetrahydrocarbazol-9-yl)methyl)-N-hydroxybenzamide], the pIC50 at Human recombinant HDAC1 was 5.28; at human recombinant HDAC6, 8.07. For the same compound, on human recombinant HDAC6, the “Selectivity for HDAC6, HD1/HD6” value was 622.7.

As to `O=C(NO)c1ccc(Cn2c3c(c4ccccc42)C(=O)C(CN2CC(F)(F)C2)CC3)cc1` (stereo not drawn) [Compound 121, 4-((3-((3,3-difluoroazetidin-1-yl)methyl)-4-oxo-1,2,3,4-tetrahydrocarbazol-9-yl)methyl)-N-hydroxybenzamide], the pIC50 on Human recombinant HDAC1 was 5.43; on human recombinant HDAC6, 8.07. Further, the “Selectivity for HDAC6, HD1/HD6” value at human recombinant HDAC6 worked out at 437.3.

In the case of `Cc1nccn1CC1CCc2c(c3ccccc3n2Cc2ccc(C(=O)NO)cc2)C1=O` (stereo not drawn) [Compound 85, N-hydroxy-4-((3-((2-methyl-1H-imidazole-1-yl)methyl)-4-oxo-1,2,3,4-tetrahydrocarbazol-9-yl)methyl)benzamide], the pIC50 at Human recombinant HDAC1 is 5.59. For the same compound, at human recombinant HDAC6, the “Selectivity for HDAC6, HD1/HD6” value came out at 225 and the pIC50 is 7.95.

Turning to `Cc1nn(Cc2ccc(C(=O)NO)cc2)c2c1C(=O)CC(C)(C)C2` [Compound 101, N-hydroxy-4-((3,6,6-trimethyl-4-oxo-4,5,6,7-tetrahydroindazol-1-yl)methyl)benzamide], the pIC50 on Human recombinant HDAC1 is 5.78. Also, on human recombinant HDAC6, the “Selectivity for HDAC6, HD1/HD6” value was determined as 135.1 and the pIC50 is 7.91.

Take `Cc1c2c(n(CCCCCC(=O)NO)c1C)CCCC2=O` [Compound 235, 6-(2,3-dimethyl-4-oxo-4,5,6,7-tetrahydroindol-1-yl)-N-hydroxyhexanamide]: at Human recombinant HDAC1, the pIC50 was 5.88. Moreover, on human recombinant HDAC6, the “Selectivity for HDAC6, HD1/HD6” value came out at 34.9 and the pIC50 is 7.43.
